The source made the active and inactive calls. No cut-off for these calls is given here.
Columns and labels:
U-937 [1] = experiment: Induction of intrinsic apoptosis in human U-937 cells overexpressing p53-V272M mutant assessed as upregulation of BAX gene expression by RT-qPCR analysis; format: functional, cell-based
HL-60 [2] = experiment: Upregulation of PUMA mRNA expression in human HL-60 cells overexpressing p53-V272M mutant at 2 uM pretreated for 1 hr followed by culturing in fresh medium for 8 hrs by RT-qPCR analysis; format: functional, cell-based
U-937 [3] = experiment: Antitumor activity against GFP-tagged human U-937 cells harboring p53 V272M mutant xenografted in M-NSG mouse assessed as decrease in leukemia cell population in spleen at 25 mg/kg, ip administered for 9 days starting from 7 days post inoculation and measured on day 2,6 and 9 by FACS analysis; format: functional, organism-based; conditions: time 9.0 day
U-937 [4] = experiment: Antitumor activity against GFP-tagged human U-937 cells harboring p53 V272M mutant xenografted in M-NSG mouse assessed as decrease in leukemia cell population in bone marrow at 25 mg/kg, ip administered for 9 days starting from 7 days post inoculation and measured on day 2,6,and 9 by FACS analysis; format: functional, organism-based; conditions: time 9.0 day
NB-4 [5] = experiment: Induction of granulocytic differentiation in human NB4 cells assessed as increase in CD11b expression at 9 uM incubated for 1 hrs followed by replacement with fresh culture medium for 48 hrs by flow cytometry analysis (reference value: 1.44%); format: functional
NB-4 [6] = experiment: Induction of granulocytic differentiation in human NB4 cells assessed as CD11b positive cells at 9 uM incubated for 1 hrs followed by replacement with fresh culture medium for 48 hrs by flow cytometry analysis relative to control; format: functional
U-937 [7] = experiment: Antitumor activity against luciferase transduced human U-937 cells harboring p53 V272M mutant xenografted in M-NSG mouse assessed as median survival at 10 mg/kg, iv administered daily for 11 days (reference value: 11 day); format: functional
[8] = Plasma stability in dog assessed as half life at […] measured upto 120 mins by LC-MS analysis; format: ADME, cell-free, Canis lupus familiaris
[9] = Drug uptake in human U-937 cells harboring p53-V272M mutant at 10 uM measured after 10 mins by ICP-MS analysis; format: ADME, cell-based; conditions: u-937, 10 min
NB-4 [10] = experiment: Induction of granulocytic differentiation in human NB4 cells assessed as increase in CD11b expression at 3 uM incubated for 1 hrs followed by replacement with fresh culture medium for 48 hrs by flow cytometry analysis (reference value: 1.44%); format: functional
[11] = Drug uptake in human HepG2 cells at 1 to 10 uM incubated for 5 mins at 4 degreeC by ICP-MS analysis; format: ADME, cell-based; conditions: hepg2, 5 min, dose 1-10 µM
[12] = Clearance in mouse assessed as hepatic blood flow; format: ADME, tissue-based
[13] = molecular target: T1, PML-RARalpha (Homo sapiens) (UniProt P10276+P29590); experiment: Induction of PML/RARalpha degradation in human NB4 cells assessed as downregulation of DLK1 mRNA expression incubated for 1 hrs followed by replacement with fresh culture medium for 6 hrs by RT-qPCR analysis; format: cell-based; conditions: dose 0.3-3 µM
[14] = Drug uptake in human HPDE6c7 cells at 10 uM measured after 10 mins by ICP-MS analysis; format: ADME, cell-based; conditions: hpde6c7, 10 min
U-937 [15] = experiment: Upregulation of PUMA mRNA expression in human U-937 cells overexpressing p53-V272M mutant pretreated for 1 hr followed by culturing in fresh medium for 4 hrs by RT-qPCR analysis; format: functional, cell-based
[16] = molecular target: T1, PML-RARalpha (Homo sapiens); experiment: Induction of PML/RARalpha degradation in human NB4 cells assessed as downregulation of MPO mRNA expression incubated for 1 hrs followed by replacement with fresh culture medium for 6 hrs by RT-qPCR analysis; format: cell-based; conditions: dose 0.3-3 µM
NB-4 [17] = experiment: Induction of apoptosis in human NB4 cells assessed as late apoptotic cells at 9 uM preincubated for 1 hrs followed by replacement with fresh culture medium and measured after 24 hrs by Annexin V-FITC/7AAD staining based flow cytometry assay (reference value: 3.71%); format: functional
U-937 [18] = experiment: Induction of cell cycle arrest in human U-937 cells harboring p53-V272M mutant at 0.5 to 8 uM pretreated for 1 hr followed by culturing in fresh medium for 24 hrs by RNase/PI staining based flow cytometry analysis; format: functional; conditions: dose 0.5-8 µM
[19] = Chemical stability of compound in PBS at 10 uM incubated for 1 hr by LC-MS analysis; format: physicochemical; conditions: buffer
[20] = molecular target: T1, PML-RARalpha (Homo sapiens); experiment: Induction of PML/RARalpha degradation in human NB4 cells assessed as residual protein level at 0.1 uM incubated for 1 hrs followed by replacement with fresh culture medium and measured after 16 hrs by Western blot analysis (reference value: 1); format: cell-based
U-937 [21] = experiment: Cytotoxicity against p53 null human U-937 cells harboring empty vector incubated for 48 hrs by CCK-8 assay; format: functional, cell-based; conditions: U-937, 48 h
U-937 [22] = experiment: Induction of senescence in human U-937 cells overexpressing p53-V272M mutant assessed as upregulation of CDKN1A gene expression by RT-qPCR analysis; format: functional, cell-based
NCI-H1299 = experiment: Upregulation of CDKN1A mRNA expression in human NCI-H1299 cells overexpressing p53-V272M mutant at 2 uM pretreated for 1 hr followed by culturing in fresh medium for 8 hrs by RT-qPCR analysis; format: functional, cell-based
[23] = molecular target: T1, PML-RARalpha (Homo sapiens); experiment: Induction of PML/RARalpha degradation in HEK293T cells at 3 uM incubated for 1 hrs followed by replacement with fresh culture medium and measured after 16 hrs by immunofluorescence analysis; format: cell-based
[24] = Drug uptake in human HepG2 cells assessed as arsenic localization in cytoplasm at 10 uM incubated for 1 hr by ICP-MS analysis; format: ADME, cell-based; conditions: hepg2, 1 h
U-937 [25] = experiment: Upregulation of MDM2 protein expression in human U-937 cells overexpressing p53-V272M mutant at 0.1 to 0.5 uM pretreated for 1 hr followed by culturing in fresh medium for 16 hrs by Western blot analysis; format: functional, cell-based; conditions: dose 0.1-0.5 µM
HL-60 [26] = experiment: Inhibition of colony formation in human HL-60 cells harboring p53-V272M mutant at 0.2 to 3.2 uM pretreated for 1 hr followed by culturing in fresh medium and measured on day 18 by crystal violet staining based assay; format: functional, cell-based; conditions: dose 0.2-3.2 µM
NB-4 [27] = experiment: Induction of apoptosis in human NB4 cells assessed as viable cells at 9 uM preincubated for 1 hrs followed by replacement with fresh culture medium and measured after 24 hrs by Annexin V-FITC/7AAD staining based flow cytometry assay (reference value: 94%); format: functional; conditions: read-out: Activity
NB-4 [28] = experiment: Induction of apoptosis in human NB4 cells assessed as late apoptotic cells at 3 uM preincubated for 1 hrs followed by replacement with fresh culture medium and measured after 24 hrs by Annexin V-FITC/7AAD staining based flow cytometry assay (reference value: 3.71%); format: functional
U-937 [29] = experiment: Induction of cell cycle arrest in human U-937 cells overexpressing p53-V272M mutant assessed as upregulation of p21 encoding CDKN1A gene expression by RT-qPCR analysis; format: functional, cell-based
NB-4 [30] = experiment: Induction of apoptosis in human NB4 cells assessed as necrotic cells at 27 uM preincubated for 1 hrs followed by replacement with fresh culture medium and measured after 24 hrs by Annexin V-FITC/7AAD staining based flow cytometry assay (reference value: 0.18%); format: functional
[31] = Drug uptake in human HepG2 cells assessed as fold increase in arsenic accumulation at 10 uM incubated for 10 mins by ICP-MS analysis; format: ADME, cell-based; conditions: hepg2, 10 min

T1 sequence (P10276 whole entry, looked up): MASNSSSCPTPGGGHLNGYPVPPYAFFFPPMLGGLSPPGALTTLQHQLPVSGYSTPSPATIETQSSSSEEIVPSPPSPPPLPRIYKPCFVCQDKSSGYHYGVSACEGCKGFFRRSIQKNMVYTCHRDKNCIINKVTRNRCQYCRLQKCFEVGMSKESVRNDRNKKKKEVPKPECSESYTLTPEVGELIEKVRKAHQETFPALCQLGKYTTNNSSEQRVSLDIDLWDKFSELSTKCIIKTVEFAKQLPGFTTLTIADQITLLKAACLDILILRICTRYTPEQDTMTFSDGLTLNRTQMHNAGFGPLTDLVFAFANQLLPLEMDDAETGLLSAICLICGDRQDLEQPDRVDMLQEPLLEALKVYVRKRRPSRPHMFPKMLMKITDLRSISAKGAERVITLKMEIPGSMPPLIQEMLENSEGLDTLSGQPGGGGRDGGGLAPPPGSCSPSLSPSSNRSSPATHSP
T1 sequence (P29590 whole entry, looked up): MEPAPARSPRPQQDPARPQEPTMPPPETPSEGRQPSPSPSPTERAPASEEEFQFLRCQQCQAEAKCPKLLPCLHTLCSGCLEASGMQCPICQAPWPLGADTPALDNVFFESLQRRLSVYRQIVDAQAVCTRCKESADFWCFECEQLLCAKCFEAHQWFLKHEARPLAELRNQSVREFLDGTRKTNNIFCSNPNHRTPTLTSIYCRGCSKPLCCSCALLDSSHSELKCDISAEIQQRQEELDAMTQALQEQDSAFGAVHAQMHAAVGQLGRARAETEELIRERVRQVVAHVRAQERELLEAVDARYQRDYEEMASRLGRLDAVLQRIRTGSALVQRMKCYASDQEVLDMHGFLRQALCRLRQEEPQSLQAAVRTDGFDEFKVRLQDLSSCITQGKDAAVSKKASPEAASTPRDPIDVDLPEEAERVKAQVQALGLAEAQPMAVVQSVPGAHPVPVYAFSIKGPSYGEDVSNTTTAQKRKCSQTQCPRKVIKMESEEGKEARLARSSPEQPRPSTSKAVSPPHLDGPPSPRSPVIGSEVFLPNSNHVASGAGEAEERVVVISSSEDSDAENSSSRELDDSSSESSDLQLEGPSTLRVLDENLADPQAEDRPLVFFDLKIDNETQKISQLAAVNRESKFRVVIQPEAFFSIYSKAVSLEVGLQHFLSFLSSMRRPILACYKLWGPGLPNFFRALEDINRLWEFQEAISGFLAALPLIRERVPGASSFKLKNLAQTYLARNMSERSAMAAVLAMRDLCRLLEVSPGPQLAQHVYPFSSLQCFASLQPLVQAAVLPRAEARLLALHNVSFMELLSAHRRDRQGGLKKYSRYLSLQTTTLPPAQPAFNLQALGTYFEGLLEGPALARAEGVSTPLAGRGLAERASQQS

## CC(=O)OC[C@H]1O[C@@H](S[As]2SCCS2)[C@H](OC(C)=O)[C@@H](OC(C)=O)[C@@H]1OC(C)=O
U-937 [1]
  Activity: Active
HL-60 [2]
  Activity: Active
U-937 [3]
  Activity: Active
U-937 [4]
  Activity: Active
NB-4 [5]
  Activity: 19%
NB-4 [6]
  Activity: 20.9%
U-937 [7]
  MST: 16 days
[8]
  half-life: 3.06 min
[9]
  Drug uptake: Active
NB-4 [10]
  Activity: 32.9%
[11]
  Drug uptake: Not Active
[12]
  QH: 90 mL/min/kg
[13]
  Activity: Dose-Dependent Effect
[14]
  Drug uptake: Active
U-937 [15]
  Activity: Active
[16]
  Activity: Dose-Dependent Effect
NB-4 [17]
  Activity: 6.71%
U-937 [18]
  Activity: Active
[19]
  Stability: Stable
[20]
  Activity: 0.55
U-937 [21]
  IC50: 2100 nM
U-937 [22]
  Activity: Active
NCI-H1299
  Activity: Active
[23]
  Activity: Active
[24]
  Drug uptake: Active
U-937 [25]
  Activity: Active
HL-60 [26]
  inhibition: Active
NB-4 [27]
  viability at 9 µM: 85.6%
NB-4 [28]
  Activity: 4.45%
U-937 [29]
  Activity: Active
NB-4 [30]
  Activity: 1.3%
[31]
  fold change (FC): 19
